US20130143884A1, “4-[2-[ [5-METHYL-1-(2-NAPHTALENYL)-1H-PYRAZOL-3-YL]OXY]ETHYL] MORPHOLINE SALTS” (priority 2009, published 2013)
Where “and” joins values, the source holds several entries; their conditions need not be identical. Equal entries are not always repeated. Structures can show the parent of a compound that is named as a salt. Where two headings read alike, the source gives them in different places.

Columns and labels:
[1] = Dissolution and absorption profile in vivo; conditions: compared with its related base
[2] = Thermodynamic solubility at pH 7.4; format: physicochemical
Description: General protocol for thermodynamic solubility at pH 7.4 and pH 2 is described below.
A) Thermodynamic Solubility at pH 7.4
Buffer phosphates pH 7.4 was prepared as follows: • A solution 25 mM of Na2HPO4.12H2O (for 1 l of water, weight 8.96 g) was prepared • A solution 25 mM de KH2PO4 (for 1 l of water weight 3.4 g) was prepared. • 812 ml of disodium phosphate solution+182 ml of potassium phosphate solution were mixed and pH checked according was 7.4.
Samples were equilibrated using: • Stirrer Thermomixer Control of Eppendorf a 25° C. y 1250 rpm • pHmeter with combined electrode of pH semimicro
2 mg in an HPLC vial (by duplicate) was weight and 1 ml of buffer was added. The vial was maintained at 25° C., in the stirrer Thermomixer Comfort., during 24 hours. Centrifugation at 4000 rpm followed during 15 min.
The resulting upper layer was collected with a glass pipette and transferred to the HPLC vials. Again centrifuged and the injector programmed at 2.7 mm high.
Sol.A: 2 mg in 5 ml methanol (400 ug/ml)
Sol.B: 1 ml Sol.A to 10 ml with methanol (40 ug/ml)
Sol.C: 5 ml Sol.B to 50 ml with methanol (4 ug/ml)
Sol.D: 4 ml Sol.C to 10 ml with methanol (1.6 ug/ml)
Sol.E: 5 ml Sol.D to 25 ml with methanol (0.32 ug/ml)
10 μl of all prepared solutions were injected, beginning with the more diluted standard. Blanks were also injected, for checking the absence of contamination.
The standard calibration curve was done (see FIG. 29). Consider Y=area y X=μg injected standard
10 μl of problem compound solution were injected, by duplicate and the average peak area (if quantifiable) interpolated in the standard curve (see Tables 9, 10 and 11 and example below).
Chromatographic Conditions • Column: XBridge C18 (or similar) 2.5 μm 4.6×50 mm • Temperature: 35° C. • Mobile phase: ACN/ammonium bicarbonate 10 mM. • Gradient: 0-3.5 min: from 15% ACN to 95% ACN • 3.5-5 min: 95% ACN • 5-6 min: 95 a 15% ACN • 6-8 min: 15% ACN • Flow: 1.5 ml/min • Detection: around the UV absorption maximum

[3] = Descriptive solubility in water and solvents; format: physicochemical
pKa = format: physicochemical
[4] = Pharmacokinetics in rats after single oral administration (plasma, HPLC with fluorescence detection); format: in vivo; conditions: Wistar Hannover; rat plasma, single oral 25 mg/kg (expressed as compound 63)
Description: The pharmacokinetics of Example 1 in Wistar Hannover rats following a single oral administration of 25 mg/kg (expressed as compound 63) was tested. For this purpose, plasma samples were collected at different time points and analyzed using HPLC (High pressure liquid chromatography) method with fluorescence detection.
Two groups were used in this test. Group 1 received vehicle and Group 2 received Example 1 at 25 mg/kg with an administration volume of 10 mL/kg.
Blood samples were extracted from the retro-orbital zone at the following time points: pre-dose, 15 min, 30 min, 1 h, 1.5 h, 2 h, 3 h, 4 h, 5 h, 6 h, 8 h and 24 h. Blood was then transferred into heparin-containing plastic tubes. Plasma was obtained by centrifugation at approximately 3000 rpm for 10 min at 4° C. These plasma samples were labeled and frozen at a temperature of approximately −65° C. until analysis.
Samples were analyzed by a previously validated analytical method. Briefly, rat plasma samples were thawed at room temperature and centrifuged at 3000 rpm for 10 min at approximately 4° C. 300 μl of plasma samples were placed into vials and spiked with 30 μl of internal standard working solution. The vials were capped and mixed thoroughly. […]
The peaks corresponding to Example 1 and its internal standard were quantified by fluorescence detection at an excitation wavelength of 260 nm and an emission wavelength of 360 nm. […]
The peak plasma concentration values (Cmax) and the time to reach such concentration (tmax) were obtained directly from the experimental data. The elimination constant (kel) was calculated by linear regression of the last phase of the curve (log concentration vs. time). The elimination half-life (t1/2) was determined with the expression t1/2=0.693/kel. The area under the curve of plasma levels vs. time from zero to the last time determined (AUC0-t) was calculated be means of the trapezoidal method. The area under the curve of plasma levels vs time from zero to infinity (AUC0-∞) was calculated with the expression: AUC0-∞=AUC0-t+Clast/kel, where Clast is the plasma concentration at the last time measured.

[5] = treatment and prevention of chronic and acute pain, particularly neuropathic pain; reported in WO 2006/021462; cited from earlier work
sigma 1 (σ-1) site = sigma 1 (σ-1) site (Homo sapiens, UniProt Q99720); conditions: cited from earlier work
[6] = Solubility of the salts in crystallization screening solvents; format: physicochemical; conditions: initial screening solvents; for the maleate except ethyl acetate
Description: The product obtained in the initial preparation was solved in the minimum amount of crystallization solvent at its boiling temperature or at a maximum of 75° C. […] The mother liquors were cooled to room temperature and kept for 24 hours.
Initially, a crystallization screening of compound 63 with the ten counterions depicted in table 2 was performed, at a 40 mg scale, in the following ten solvents: acetone, ethyl acetate, chloroform, N,N-dimethylformamide, methanol, ethanol, isopropanol, 2-butanol, acetonitrile and tetrahydrofuran. The procedure started with the preparation of equimolar mixtures, from known concentration methanol dissolutions, of compound 63 and the different acid counterions. The resulting crude, after the methanol evaporation, was crystallized from the hot solvents formerly mentioned. Different crystallization strategies were used depending on the solubility of each acid and compound 63 mixture, and therefore the solids were obtained using different procedures. For some acids, the mixture was not soluble in the hot crystallization solvent, obtaining a slurry solid. In other cases, the solid crystallized during room temperature cooling of the solution, or after several days at 4° C. or at −18° C. Finally, in some crystallization attempts, the solid was obtained after slow evaporation of the solvent at room temperature. […]

sigma 2 (σ-2) site = sigma 2 (σ-2) site (Homo sapiens, UniProt Q5BJF2); conditions: cited from earlier work
Chain of sigma 2 (σ-2) site (Q5BJF2 whole entry): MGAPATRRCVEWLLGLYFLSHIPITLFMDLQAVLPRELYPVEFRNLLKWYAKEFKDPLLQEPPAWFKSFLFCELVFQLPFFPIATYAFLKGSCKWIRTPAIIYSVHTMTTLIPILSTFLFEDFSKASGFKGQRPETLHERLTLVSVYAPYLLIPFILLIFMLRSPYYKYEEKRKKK

Chain of sigma 1 (σ-1) site (Q99720 whole entry): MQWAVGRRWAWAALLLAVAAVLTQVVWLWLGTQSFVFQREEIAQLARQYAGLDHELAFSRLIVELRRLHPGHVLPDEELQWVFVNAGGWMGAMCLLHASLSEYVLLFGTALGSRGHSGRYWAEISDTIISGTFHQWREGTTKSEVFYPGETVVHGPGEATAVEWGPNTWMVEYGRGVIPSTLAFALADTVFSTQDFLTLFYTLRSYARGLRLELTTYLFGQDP

Which “Dissolution and absorption profile in vivo” value [1] does the source give for `Cc1cc(OCCN2CCOCC2)nn1-c1ccc2ccccc2c1` [Example 1, 4-[2-[[5-methyl-1-(2-naphthalenyl)-1H-pyrazol-3-yl]oxy]ethyl]morpholine hydrochloride] here?
Its value is “better dissolution and absorption profile in vivo than its related base”.

And the solubility thermodynamic at 24 h ([2]; aqueous buffer, thermodynamic from solid, pH=7.4, phosphate buffer 50 mM, 25° C., 24 hours)?
The solubility thermodynamic at 24 h was 227 µg/mL.

And the “Conc. (single injections)” value ([2]; pH 7.4, duplicate samples, duplicate injections, hydrochloride)?
Its value is 225.5 µg/mL and 229.0 µg/mL and 229.3 µg/mL and 225.3 µg/mL.

What about the “Conc. Mean” value ([2]; pH 7.4, mean of 4 injections) of the same molecule?
The value was 227.262 µg/mL.

What about the “Solubility in 1N hydrochloric acid” value ([3]; 1N hydrochloric acid) of the same molecule?
The value was “freely soluble”.

What about the “Solubility in 1N sodium hydroxide” value ([3]; 1N sodium hydroxide) of the same molecule?
The value was “practically insoluble”.

And the Solubility in acetone ([3]; acetone)?
Its Solubility in acetone is “slightly soluble”.

And the “Solubility in dimethyl sulphoxide” value ([3]; dimethyl sulphoxide)?
Its value is “freely soluble”.

And the Solubility in ethanol ([3]; ethanol)?
Its Solubility in ethanol is “sparingly soluble”.

And the “Solubility in ethyl acetate” value ([3]; ethyl acetate)?
Its value is “practically insoluble”.

What about the Solubility in methanol ([3]; methanol) of the same molecule?
The Solubility in methanol was “freely soluble”.

What about the Solubility in water ([3]; water) of the same molecule?
Its Solubility in water is “very soluble”.

What about the pKa (pKa; read-out: pKa) of the same molecule?
The pKa was 6.73.

What about the AUC(0-inf) [4] of the same molecule?
The AUC(0-inf) was 1250 ng·h/mL.

What about the AUC(0-t) [4] of the same molecule?
The AUC(0-t) was 1220 ng·h/mL.

And the Cmax [4]?
Its Cmax is 1150 ng/mL.

With `Cc1cc(OCCN2CCOCC2)nn1-c1ccc2ccccc2c1` [compound 63, 4-[2-[[5-methyl-1-(2-naphthalenyl)-1H-pyrazol-3-yl]oxy]ethyl]morpholine] as the molecule, how does the Analgesic activity [5] read?
Its Analgesic activity is “strong analgesic activity”.

And the Sigma-1 receptor activity (sigma 1 (σ-1) site; reported in WO 2006/021462)?
The Sigma-1 receptor activity was “highly selective sigma-1 (σ-1) receptor antagonist”.

What about the pKa (pKa) of the same molecule?
The pKa was 6.7.

For `CCS(=O)(=O)O.Cc1cc(OCCN2CCOCC2)nn1-c1ccc2ccccc2c1` [ethanesulfonate salt], which “Solubility in all the solvents assayed (first set of ten solvents)” value [6] is on record?
Its value is > 200 mg/mL.

For SKF 10047 [reference compound], which “Affinity for the sigma 1 (σ-1) site” value (sigma 1 (σ-1) site) is on record?
The value was “nanomolar”.

And the “Affinity for the sigma 2 (σ-2) site” value (sigma 2 (σ-2) site)?
The value was “micromolar”.
